Tests used:
[1] = test system: inflammatory factors such as ll6, ll1b, Tnf, and Tlr4; assay: High-throughput RT qPCR of inflammatory factors in decidua; format: in vivo, mouse; conditions: LPS-injected dams
Protocol: FIGS. 3A & 3B. The transcript levels of several inflammatory factors such as 116, Illb, Tnf, and Tlr4, among others, were assessed in the decidual samples and increased expression was found in dams intra-amniotically injected with LPS that was abrogated upon treatment with nitazoxanide.
High-throughput RT qPCR: This was performed as previously described (Motomura et al., JCI Insight, 7, 2022). Briefly, total RNA was isolated from decidua with RNeasy Mini Kits (Qiagen), according to the manufacturer's instructions. RNA concentrations, purity, and integrity were evaluated with the NanoDrop 8000 spectrophotometer (Thermo Scientific, Wilmington, DE, USA) and the Bioanalyzer 2100 (Agilent Technologies, Wilmington, DE, USA). cDNA was synthesized by using SuperScript IV VILO Master Mix (Invitrogen by Thermo Fisher Scientific Baltics UAB, Vilnius, Lithuania). Gene expression profiling of the tissues was performed on the BioMark System for high-throughput RT-qPCR (Fluidigm, San Francisco, CA, USA) or the ABI 7500 Fast real-time PCR system (Applied Biosystems, Life Technologies Corporation, Pleasanton, CA, USA) with the TaqMan gene expression assays (Applied Biosystems, Life Technologies Corporation). […] Data were normalized by using multiple reference genes (Gusb, Hsp90abl, Gapdh, and Actb) averaged within each sample, and relative changes in transcript levels were calculated by the AACt method. […]

[2] = test system: MNRR1; assay: MNRR1-luciferase reporter assay in HTR cells; format: cell-based; conditions: Homo sapiens; HTR8 cells, 24 h, relative to vehicle (DMSO); read-out: half-maximal effective concentration (EC50), activation of MNRR1 reporter
Protocol: FIGS. 1A-1D. Nitazoxanide's anti-inflammatory effects are via transcriptional activation of MNRR1. (FIG. 1A) Results of a screen of ˜2400 FDA-approved drugs and natural compounds identified to transcriptionally activate (>1), inhibit (<1), or not affect (=1) MNRR1. Each circle represents one drug and the MNRR1 activator (nitazoxanide (N)) has been highlighted in green. (FIG. 1B) Equal numbers of HTR cells overexpressing the MNRR1-luciferase reporter were plated on a 96 well plate and treated with increasing amounts of nitazoxanide or vehicle (DMSO) for 24 h. EC50 was calculated using the activation of MNRR1 reporter relative to vehicle treated cells using the Quest Graph^TM EC50 Calculator. (FIG. 1C) TNF transcript levels were measured in human placental cells. Actin was used as a housekeeping gene for normalization. […]
Transfections and luciferase reporter assays: HTR cells were transfected with the indicated plasmids, using TransFast transfection reagent (Promega, Madison, WI, USA) according to the manufacturer's protocol as previously described (Purandare et al., iScience, 25: 105342, 2022). […] EC50 was calculated by using the Quest Graph™ EC50 Calculator (AAT Bioquest, Inc., on the World Wide Web at aatbio.com/tools/ec50-calculator).

[3] = single dose of 4 gm, adult humans; cited from earlier work
[4] = test system: MELAS cybrid cells; assay: Mitophagy markers in MELAS cybrid cells (immunoblot); format: cell-based, human; conditions: 10 μM, 48 h
Protocol: FIGS. 7A-7E: MNRR1 activation by tizoxanide enhances mtDNA biogenesis and mitophagy to shift heteroplasmy in MELAS cells. FIG. 7A: Oxygen consumption measured from MELAS cybrid cells treated with vehicle (DMSO) or tizoxanide (10 μM) for 48 h (n=4 biological replicates, error bars represent SE). FIG. 7B: Haelll restriction enzyme digestion of a PCR-amplified fragment of mtDNA harboring the m.3243A>G mutation from DW7 cells treated with vehicle (DMSO) or tizoxanide (10 μM) for 144 h. […] FIG. 7C: Genes identified using qPCR of MELAS cybrid cells stably overexpressing EV or MNRR1. FIG. 7D: MtDNA levels are shown relative to nuclear DNA (nDNA) (GAPDH) (n=5 biological replicates, error bars represent SE). FIG. 7E: Equal amounts of MELAS cybrid cell lysates, treated with vehicle (DMSO) or tizoxanide (10 μM) for 48 h, were separated on an SDS-PAGE gel and probed for PGC1a, PINK1, LC3 A/B, MNRR1, and Tubulin. […]
Immunoblotting: Immunoblotting was performed as described previously. […] The clear supernatants were transferred to new tubes and quantified using the Bradford reagent with BSA as standard (BioRad, Hercules. CA). […] For detection after immunoblotting, the SuperSignal™ West Pico PLUS substrate (ThermoFisher, Waltham, MA) was used to generate chemiluminescence signal, which was detected with X-Ray film (RadTech, Vassar, MI).

Compound | LPS-increased transcript levels of inflammatory factors in decidual samples [1] | EC50 [2] [nM] | adverse effects [3] | mitophagy (PINK1, LC3A, LC3B, pSer-65 ubiquitin) [4]
CC(=O)Oc1ccccc1C(=O)Nc1ncc([N+](=O)[O-])s1 [nitazoxanide, Nitazoxanide] | abrogated | 115 | did not result in any adverse effects | 
O=C(Nc1ncc([N+](=O)[O-])s1)c1ccccc1O [tizoxanide, Tizoxanide] |  |  |  | Increased mitophagy

Reference: patent US20250241901A1, “ACTIVATION OF MNRR1 / CHCHD2 AS A THERAPEUTIC TARGET FOR MITOCHONDRIA ASSOCIATED DISORDERS” (Wayne State University, priority 2024, published 2025)
